Measured values reported in PubChem BioAssay AID1259407 (Chemical Carcinogenesis Research Information System (CCRIS), 2018).
Active and inactive are the calls of the source. How the calls were made is not given here.

System: CCRIS mutagenicity, Ames/micronucleus/aberration tests
Assay: CCRIS mutagenicity studies
Conditions: Test System: AMES SALMONELLA TYPHIMURIUM

Compound: CN(C)N=O
- mutagenic call (Strain/Indicator: TA100, Metabolic Activation: RAT, LIVER, S-9, AROCLOR 1254, Method: STANDARD PLATE): inactive; negative
- mutagenic call (Strain/Indicator: TA100, Metabolic Activation: RAT, LIVER, S-9, CYCLOHEXANOL, Method: PREINCUBATION): active; positive
- mutagenic call (Strain/Indicator: TA100, Metabolic Activation: RAT, LIVER, S-9, ETHANOL, Method: PREINCUBATION): active; positive
- mutagenic call (Strain/Indicator: TA100, Metabolic Activation: RAT, LIVER, S-9, KC500 OR PHENOBARBITAL, Method: LIQUID SUSPENSION): active; positive
- mutagenic call (Strain/Indicator: TA100, Metabolic Activation: RAT, LIVER, S-9, N-BENZYLIMIDAZOLE, Method: PREINCUBATION): active; positive
- mutagenic call (Strain/Indicator: TA100, Metabolic Activation: RAT, LIVER, S-9, PHENOBARBITAL, Method: PREINCUBATION): active; positive
- mutagenic call (Strain/Indicator: TA100, Metabolic Activation: RAT, LUNG, S-9, Method: STANDARD PLATE): inactive; negative
- mutagenic call (Strain/Indicator: TA100, Metabolic Activation: RAT, NASAL, S-9, Method: STANDARD PLATE): inactive; negative
- mutagenic call (Strain/Indicator: TA100, Metabolic Activation: S-9, Method: PREINCUBATION): inactive; negative
- mutagenic call (Strain/Indicator: TA100, Metabolic Activation: TOBACCO CELLS, Method: PREINCUBATION): inactive; negative
- mutagenic call (Strain/Indicator: TA104, Metabolic Activation: HAMSTER, LIVER, S-9, AROCLOR 1254, NADPH GENERATING SYSTEM, CYTOSOL, Method: PREINCUBATION): active; positive
- mutagenic call (Strain/Indicator: TA104, Metabolic Activation: HAMSTER, LIVER, S-9, AROCLOR 1254, Method: PREINCUBATION): active; positive
- mutagenic call (Strain/Indicator: TA104, Metabolic Activation: HAMSTER, LIVER, S-9, Method: PREINCUBATION): active; positive
- mutagenic call (Strain/Indicator: TA104, Metabolic Activation: MICROSOMES, CYTOSOL, Method: PREINCUBATION): active; positive
- mutagenic call (Strain/Indicator: TA104, Metabolic Activation: RAT, LIVER, S-9, AROCLOR 1254, Method: PREINCUBATION): active; positive
- mutagenic call (Strain/Indicator: TA104, Metabolic Activation: RAT, LIVER, S-9, Method: PREINCUBATION): active; positive
- mutagenic call (Strain/Indicator: TA1530, Metabolic Activation: RAT, LIVER, S-9, AROCLOR 1254, Method: PREINCUBATION): active; positive
- mutagenic call (Strain/Indicator: TA1530, Metabolic Activation: RAT, LIVER, S-9, Method: STANDARD PLATE): active; positive
- mutagenic call (Strain/Indicator: TA1535 (PSK1002), Metabolic Activation: RAT, LIVER, S-9, ISONIAZID, Method: PREINCUBATION): active; positive
- mutagenic call (Strain/Indicator: TA1535, Metabolic Activation: NONE, Method: PREINCUBATION): inactive; negative
- mutagenic call (Strain/Indicator: TA1535, Metabolic Activation: RAT LIVER S-9, ETHANOL (4%), Method: PREINCUBATION): inactive; negative
- mutagenic call (Strain/Indicator: TA1535, Metabolic Activation: RAT, LIVER, HEPATOCYTES, Method: PREINCUBATION): active; positive
- mutagenic call (Strain/Indicator: TA1535, Metabolic Activation: RAT, LIVER, MICROSOMES, KANECHLOR 500, Method: PREINCUBATION): active; positive
- mutagenic call (Strain/Indicator: TA1535, Metabolic Activation: RAT, LIVER, S-9, AROCLOR 1254, (PREGNANT MARE SERUM), Method: PREINCUBATION): active; positive
- mutagenic call (Strain/Indicator: TA1535, Metabolic Activation: RAT, LIVER, S-9, AROCLOR 1254, Method: PREINCUBATION): active; positive
- mutagenic call (Strain/Indicator: TA1535, Metabolic Activation: RAT, LIVER, S-9, AROCLOR, Method: PREINCUBATION): active; positive
- mutagenic call (Strain/Indicator: TA1535, Metabolic Activation: RAT, LIVER, S-9, KC500 OR PHENOBARBITAL, Method: LIQUID SUSPENSION): active; positive
- mutagenic call (Strain/Indicator: TA1535, Metabolic Activation: RAT, LIVER, S-9, SODIUM PHENOBARBITONE, Method: PREINCUBATION): active; positive
- mutagenic call (Strain/Indicator: TA1535, Metabolic Activation: RAT, LIVER, S-9, Method: PREINCUBATION): inactive; negative
- mutagenic call (Strain/Indicator: TA1535, Metabolic Activation: S-9, Method: PREINCUBATION): active; positive
